The values that follow come from patent publication US9732067B2, “Compounds and methods for activating the apoptotic arm of the unfolded protein response” (University of Kansas, priority 2012, dated 2017).

Data set [1] deals with PERK-eIF2α-CHOP (apoptotic) arm of the Unfolded Protein Response pathway. The experiment in a line: UPR-CHOP primary assay (CHO-CHOP luciferase reporter). The data set is classed as cell-based. How it is done: The purpose of this assay was to detect activators of the PERK-eIF2α-CHOP (apoptotic) arm of the Unfolded Protein Response pathway.
Cells were passaged twice a week. […] Once the cells had reached confluency, old medium was aspirated and the flasks were washed with 20 mL DPBS per T225 flask. Cells were left in DPBS for about 30 seconds. Subsequently, 6.5 mL 0.05% trypsin solution was added into the flask and the flask was rocked gently so that the solution covered the surface. The cells were allowed to detach by incubating at room temperature for about 4 minutes. The flask was washed with […] fresh growth media and the cell suspension was collected in a 50 mL sterile conical tube. The collected cells were centrifuged at 900 rpm for 5 minutes and re-suspended in 1 mL fresh growth media. An additional 19 mL of growth media was added and the tube was mixed gently. The cell suspension was filtered with a cell strainer and the cells were counted.
As above, cells were grown to confluency, washed, and detached with 5 mL trypsin solution for 4 minutes at room temperature. The flask was washed with 25 mL fresh growth media and the cell suspension was collected in a 50 mL sterile conical tube. The cells were centrifuged at 500 rpm for 10 minutes and re-suspended carefully in 1 mL fresh assay medium. An additional 19 mL of assay media was added the cells were mixed gently. The cell suspension was filtered with a cell strainer and the number of cells was counted. Cell density was adjusted to 1.0×10^5 cells/mL in medium.
On day 1, cell suspensions were prepared and 500 cells in 5 μL of assay media were plated in the wells of columns 1-48 of a 1536-well assay plate. The plates were centrifuged at 500 rpm for 1 minute and subsequently incubated at 37° C., 100% relative humidity, 5% CO2 for 16-18 hours.
[…] […] The plates were centrifuged at 1000 rpm for 1 minute and subsequently incubated at 37° C., 100% relative humidity, 5% CO2 for 6 hours.
Following the 6-hour incubation the plate was incubated for 10 minutes at room temperature and 3 μL of STEADY-GLO was added to each well. The plates were centrifuged at 2000 rpm for 2 minutes and subsequently incubated at room temperature for 10 minutes. Luminescence was measured with a luminometer.
The MLPCN library of approximately 330,000 compounds was tested in the UPR-CHOP primary screen utilizing a luciferase-based reporter expressed in a CHO cell line to identify activators of the CHOP apoptotic pathway. […]

A further data set relates to −/− MEF KO CHOP. Description: Proliferation / cytotoxicity (ATPLite) in MEF with CHOP KO. The data set is classed as cell-based. As to conditions: Mus musculus; Table 5; MEF, ATPLite. Here is the method: (§1) Several of the analogs derived from these changes were evaluated in secondary assays as they met the preliminary probe criteria for UPR-CHOP and UPR-XBP1 activity. Select compounds were assessed in a dose response manner for the ability to suppress proliferation in both the CHOP wild-type and CHOP knockout murine embryonic fibroblasts (−/− MEF KO CHOP)(Table 2).
(§2) It was determined whether ML291 and ML291 congeners would induce cell death (cytotoxicity as measured by ATPLite®, which measures production of ATP from living cells) in cells where these pathways are operant, but not activate them in the absence of the pathways.

The next data set concerns MEF with wild-type CHOP. The experiment in a line: Proliferation / cytotoxicity (ATPLite) in MEF with wild-type CHOP. The data set is classed as cell-based, mouse. As to conditions: Mus musculus; Table 5; MEF, ATPLite. Here is the method:
as §1, §2

Data set [2] deals with IRE1/XBP1 (adaptive) UPR sub-pathway. Description: UPR XBP1 assay (CHO-XBP1-luciferase reporter cell line). The data set is classed as cell-based. How it is done: A high-throughput screen of the NIH Molecular Libraries Small Molecule Repository (MLSMR) of >350,000 compounds was carried out using complementary cell-based reporter assays using stably transfected CHO-K1 cells that specifically identify activators of the PERK/eIF2α/CHOP (apoptotic), or the IRE1/XBP1 (adaptive) UPR sub-pathways.
The liquid samples were first confirmed at a single-point concentration of 10 μM in the […]. Of the liquid samples, 674 compounds were confirmed to have at least 32% activity at a 10 μM assay concentration. The confirmed compounds were further tested in dose response in the UPR-CHOP primary assay to obtain EC50 values. In addition, confirmed compounds were also dosed out in the CHO-XBP1-luciferase reporter cell line to identify compounds that were selective for the CHOP apoptotic over the adaptive XBP1 pathway.
The high throughput screening effort and subsequent validation produced two chemotypes, which were further explored by SAR analysis for potency, selectivity, the absence of reactive functionality, synthetic accessibility, physiochemical properties, and hit rate in unrelated PUBCHEM assays. SAR testing of re-constituted powders encompassed dose response testing of compounds in two assays: UPR-CHOP and UPR-XBP1 assays.
(A reporter such as luciferase makes a cellular process visible.)

For data set [3], the system named is CHOP (apoptotic) and XBP1 (adaptive) arms of the UPR. As to conditions: prior screen, non-selective hits; cited from earlier work.
For a further data set, the system named is chickens. As to conditions: grain from treated crops; cited from earlier work.
The mark [4] stands for this setting: Table 9, average of four runs, F12 HAMs, 10% hi-FBS, read-out: EC50 UPR XBP1 Assay.
[5] abbreviates: Table 9, average of four runs, F12 HAMs, 10% hi-FBS, read-out: EC50 UPR CHOP Assay.
The mark [6] stands for this setting: Cricetulus griseus, read-out: CHOP EC50.

Read-outs that look alike come from different tables or passages of the source.

For the molecule `O=C(Nc1ccc(S(=O)(=O)N2CCOCC2)cc1)c1ccc([N+](=O)[O-])s1` [Entry 2 (Table 3)], in data set [1], the “loss in CHOP potency versus 5-nitro-2-furan parent” value is on record as 6 fold.

Turning to `O=C(Nc1ccc(S(=O)(=O)N2CCC(F)CC2)cc1)c1ccc([N+](=O)[O-])o1` [Entry 10 (Table 1), N-(4-((4-fluoropiperidin-1-yl)sulfonyl)phenyl)-5-nitrofuran-2-carboxamide], the IC50 with −/− MEF KO CHOP was greater than 20 µM; in the data set with MEF with wild-type CHOP, 17.5 ± 2.69 µM.

As to `CC(C)(C)C1CCN(S(=O)(=O)c2ccc(NC(=O)c3ccc([N+](=O)[O-])o3)cc2)CC1` [Entry 14 (Table 1), N-(4-((4-tert-butylpiperidin-1-yl)sulfonyl)phenyl)-5-nitrofuran-2-carboxamide], the concentration for half-maximal inhibition (IC50) was determined as 2.05 ± 0.29 µM in the data set on −/− MEF KO CHOP and 1.36 ± 0.54 µM in the data set on MEF with wild-type CHOP.

For `CC1CCN(S(=O)(=O)c2ccc(NC(=O)c3ccc([N+](=O)[O-])o3)cc2)CC1` [Entry 12 (Table 1), N-(4-((4-methylpiperidin-1-yl)sulfonyl)phenyl)-5-nitrofuran-2-carboxamide], the IC50 amounted to 16.3 ± 0.99 µM in the data set with −/− MEF KO CHOP and 4.57 ± 1.24 µM with MEF with wild-type CHOP.

Turning to `O=C(Nc1ccc(S(=O)(=O)N2CCCCC2)cc1)c1ccc([N+](=O)[O-])o1` [Entry 8 (Table 1), N-(4-((piperidin-1-yl)sulfonyl)phenyl)-5-nitrofuran-2-carboxamide], the figures for the IC50 with −/− MEF KO CHOP and with MEF with wild-type CHOP were greater than 20 µM and 7.84 ± 1.2 µM, respectively.

With `CC1(C)CCN(S(=O)(=O)c2ccc(NC(=O)c3ccc([N+](=O)[O-])o3)cc2)CC1` [Analog 5], the EC50 in data set [2] (setting [4]) is greater than 80 µM; in data set [1] (setting [5]), 0.77 µM.

Regarding `CC1CCN(S(=O)(=O)c2ccc(NC(=O)c3ccc([N+](=O)[O-])o3)cc2)CC1` [Analog 1], the EC50 in data set [2] (setting [4]) was greater than 80 µM; in data set [1] (setting [5]) it was 0.76 µM.

For `O=C(Nc1nc2c(F)cc(F)cc2s1)c1ccccn1` [SID 104222735], in data set [2] (read-out: XBP1 EC50), the EC50 was in the range of 70 to 80 µM. Moreover, in data set [1], the “CHOP potency / activity” value is “low micromolar”.

Regarding `CC(C)(C)C1CCN(S(=O)(=O)c2ccc(NC(=O)c3ccc([N+](=O)[O-])o3)cc2)CC1` [Analog 4], the EC50 in data set [2] (setting [4]) is greater than 80 µM; in data set [1] (setting [5]), 0.65 µM.

As to `CCN(CC)C(=S)SSC(=S)N(CC)CC` [disulfiram, bis(diethylthiocarbamoyl)disulfide], the “induction of the UPR arms” value in data set [3] was “potently induce both the CHOP (apoptotic) and XBP1 (adaptive) arms of the UPR”.

Take `O=C(Nc1ccc(S(=O)(=O)N2CCC(F)CC2)cc1)c1ccc([N+](=O)[O-])o1` [Analog 3]: the EC50 in data set [2] (setting [4]) was greater than 80 µM; in data set [1] (setting [5]), 0.43 µM.

In the case of `O=C(Nc1ccc(S(=O)(=O)N2CCOCC2)cc1)c1ccc([N+](=O)[O-])o1` [Entry 1 (Table 1)], the EC50 in data set [2] (listed as SID104222717, read-out: XBP1 EC50) is greater than 71 µM; in data set [2] (read-out: XBP1 EC50), 70 to 80 µM; in data set [1] (setting [6]), 2.02 µM. Further, the “CHOP potency / activity” value in data set [1] was “low micromolar”. Further, the “selectivity (XBP1 over CHOP)” value in data set [1] was 35 fold.

As for `CC1(C)CCN(S(=O)(=O)c2ccc(NC(=O)c3ccc([N+](=O)[O-])o3)cc2)CC1` [Entry 13 (Table 1), N-(4-((4,4-dimethylpiperidin-1-yl)sulfonyl)phenyl)-5-nitrofuran-2-carboxamide], in data set [2], the “XBP1 liability” value is reported as “no discernable XBP1 liability”. Also, the IC50 in the data set on −/− MEF KO CHOP was found to be 9.17 ± 3.34 µM; with MEF with wild-type CHOP, 3.02 ± 0.6 µM. The EC50 in data set [1] (setting [6]) worked out at 0.5 µM.

Regarding `CN(C)C(=S)SSC(=S)N(C)C` [NSC-1771], in data set [3], the “induction of the UPR arms” value is “potently induce both the CHOP (apoptotic) and XBP1 (adaptive) arms of the UPR”. The “toxicity in chickens” value with chickens was “cause dyschondoplasia in the offspring of chickens”.

As usually defined, the IC50 is the concentration at which inhibition is half-maximal. Usually EC50 stands for the concentration needed to bring the measured effect to its halfway point.
